Data set [1] is described as follows: Maximally tolerated dose of prodrug in mice. It counts as in vivo. Conditions: for MTD in mice bearing tumors that express E. coli PNP: versus mice without PNP tumors. Here is the method: For experiments shown in FIG. 7, sixteen mice are implanted subcutaneously with D54 parental, no PNP expression cells, D54/PNP MuLv, approximately 250 PNP units), or D54/lentiPNP, […] PNP units tumor cells as described for efficacy evaluations. When tumors are approximately 200 mg the mice are injected intraperitoneally with 20 mg/kg 3H-F-dAdo. This dose of F-dAdo is the maximally tolerated dose of F-dAdo when given 5 times daily for 3 consecutive days. Four mice from each group are sacrificed 5, 15, 30, and 60 minutes after injection of F-dAdo, and plasma samples were obtained. The amount of F-Ade is determined in each plasma sample using reverse phase HPLC, as described.
There is no difference in the F-Ade plasma levels in mice bearing tumors with different levels of E. coli PNP activity, which is consistent with the fact that the MTD of F-dAdo is not reduced in mice bearing tumors that express E. coli PNP.
A similar experiment is conducted with F-araAMP. […] The limit of detection in these experiments with fludarabine is approximately 1 micromolar. As with F-dAdo, the MTD of F-araAMP is not reduced in mice bearing tumors that express E. coli PNP (either from lentivirus or MuLv), or when given in combination with vectors that express E. coli PNP.

Data set [2] in a line: F-Ade plasma levels after prodrug injection in tumor-bearing mice. It counts as in vivo. As to the method: Measurements of generation and clearance of circulating F-Ade are made by HPLC for example. Radiolabeled prodrug is obtained from Moravek Biochemicals and injected into mice by the same route and dosage used in efficacy experiments for comparison. Plasma samples are removed at increasing time intervals after injection of prodrug and analyzed by reverse-phase HPLC for parent compound and base. Identification of prodrug and F-Ade is by HPLC as described above.
When tumors are approximately 200 mg the mice are injected intraperitoneally with 20 mg/kg 3H-F-dAdo. […] Four mice from each group are sacrificed 5, 15, 30, and 60 minutes after injection of F-dAdo, and plasma samples were obtained. The amount of F-Ade is determined in each plasma sample using reverse phase HPLC, as described.
A similar experiment is conducted with F-araAMP. […] The limit of detection in these experiments with fludarabine is approximately 1 micromolar.

A short description of data set [3]: Systemic dose response tolerability in mice, human dose by Freireich formula. In kind it is in vivo. An excerpt:
The formula of Freireich et al., Cancer Chemother. Rep., 50:219 244, (1966) can be used to determine the maximum tolerated dose of substrate for a human subject. […] This amount or slightly less should be tolerated in humans with minimal side effects. Furthermore, it is understood that modes of administration that permit the substrate to remain localized at or near the site of the tumor will be effective at lower doses than systemically administered substrates.

Data set [4] concerns D54 tumors (no PNP expression). The data set is described as follows: Control D54 tumors without PNP expression, drug treatment in vivo.
The conditions of data set [5]: cited from earlier work.
Data set [6] concerns D54 human glioma tumors. The data set can be described thus: Ad-PNP injection of D54 tumors followed by F-araAMP. In kind it is in vivo. As to the method: D54 human glioma tumors (appx. 250 mg) are injected with an Ad-PNP (2×10^9 PFU, open circles) or saline (closed circles). PNP activity in tumor extracts taken two days after vector administration is approximately 5000 PNP units.

Data set [7] deals with D54 glioma tumors (MuLv-PNP transduced). The data set is described as follows: D54 tumors expressing E. coli PNP from MuLV, prodrug treatment in vivo. As to the method:
For example, in one in vivo tumor model, tumors are established in animals by subcutaneous implantation of about 10^7 cells into the axillary region of 6-10 mice. Athymic (or scid) mice are used for models of certain human tumors including cells such as D54, HCT-15, and SR475 head/neck. Syngeneic models are also used. For instance, mouse tumors are established using Colon 26 and G26 glioma cells.
The resulting solid tumors are measured twice weekly in two dimensions and the mass calculated using the formula for a prolate ellipsoid, [length (mm)×width^2 (mm)]/2=mg, assuming unit density. The data will permit the determination of a tumor volume doubling time, % “no takes”, and % spontaneous regressions.
PNP expression in MuLv was driven by an SV40 promoter. Mice are given non-absorbable antibiotics in their drinking water prior to treatment with high doses of MeP-dR (e.g. 168 mg/kg/d×3d) to minimize intestinal cleavage of the compound (Bharara, S., et al., 2005, Human Gene Therapy 16:339-347.). Antibiotics are not co:administered for lower doses of MeP-dR, or with less avid substrates such as fludarabine.

Data set [8] in a line: Safety analysis in flank and CNS tumor models with PNP/F-araAMP. In kind it is in vivo.
Data set [9] relates to D54 glioma tumors (lentivirus PNP). The data set is described as follows: D54 tumors expressing E. coli PNP from lentivirus, prodrug treatment in vivo. Set-up: species or system human. The source says: Syngeneic models are also used.
D54 glioma tumors are established from a stable cell line expressing E. coli PNP by a strong, CMV-based promoter in a lentiviral vector. FIG. 10 illustrates results. Open Circles: Tumors established from 10% PNP expressing/90% non-expressing tumor cells; PNP activity 9600±1300 units on day 14. Open Triangles: 5% expressing, 95% non-expressing tumor cells; PNP activity 5500±1700 units. Open Squares: Tumors established from 2.5% expressing, 97.5% non-expressing (PNP activity 3600±530 units). Closed symbols depict growth of corresponding (10%, 5%, 2.5%) PNP tumors treated with vehicle (saline control). At least six animals are studied per group. Identically treated animals from each study arm are sacrificed just prior to initiation of MeP-dR therapy (day 14) to measure intratumoral PNP acitivity. […] These experiments test the influence of substantially higher PNP activities on bystander killing in vivo. PNP activity in 300 mg tumors comprised of 100% lentivirus transduced cells is found to be approximately 126,000 PNP units (one unit=1 nmole MeP-dR converted per mg tumor tissue per hour). When the level of E. coli PNP is studied using lentiviral expression, improvements in bystander killing are observed as shown in FIG. 10.
FIG. 12 depicts a study in which 100% of cells express E. coli PNP using lentivirus. Complete regression and cures of tumors (12 of 12) are obtained with F-araAMP following a 3 day treatment schedule. […] Adjusting the schedule of F-araAMP may also improve bystander killing in vivo (FIG. 16).
Tumors in which 100% of cells expressed E. coli PNP are treated with a maximally tolerated dose (MTD, 100 mg/kg schedule, open circles) or half the MTD (closed triangles). Six animals are included per treatment group. […] PNP activity in these tumors is 126,000±16,000 units on the day of drug therapy.
Tumors are established from an inoculum in which 10% of cells expressed E. coli PNP. PNP expression on the day of drug treatment is 14,200±681 PNP units. Anti-tumor efficacy is greater at 100 mg/kg F-araAMP (open circles) than at 50 mg/kg (closed triangles) or 25 mg/kg (open triangles) given over a standard 3 day schedule (q2h×5, q1d×3 days).
D54 glioma tumors are established with decreasing proportions of PNP expressing cells (and increasing non-expressing (parental) cells). (open symbols: F-araAMP therapy; closed symbols: no prodrug therapy; circles: 2.5%; triangles 5%, and squares 10% PNP transduced cells). F-araAMP was 100 mg/kg q2h×5, q1d×3.
Tumors comprised of 5% PNP expressing cells and 2 different fludarabine schedules are shown.

Data set [10] relates to Nc1nc(F)nc2c1ncn2[C@@H]1O[C@H](CO)[C@@H](O)[C@@H]1O. The data set can be described thus: purified protein, by the assay type. Particulars: other: substrate of E. coli PNP.
Data set [11] has as its system Cc1ncnc2c1ncn2[C@H]1C[C@H](O)[C@@H](CO)O1. The data set can be described thus: purified protein, by the assay type. Conditions: other: substrate of E. coli PNP. In kind it is biochemical. The source says:
(§1) Table 1 describes the kinetic constants underlying these enzymatic reactions with E. coli PNP.

Data set [12] deals with Nc1nc(F)nc2c1ncn2[C@H]1C[C@H](O)[C@@H](CO)O1. The data set can be described thus: purified protein, by the assay type. In kind it is biochemical. Conditions: other: substrate of E. coli PNP.
Excerpt: as §1

Take `Nc1nc(F)nc2c1ncn2[C@H]1C[C@H](O)[C@@H](CO)O1` [2-F-dAdo, 2-fluoro-2′-deoxyadenosine]: the maximally tolerated dose in data set [1] (mouse, in vivo, 3 days) amounted to 20 mg/kg. Also, in [1], the “MTD in mice bearing tumors that express E. coli PNP” value is “not reduced”. For the same molecule, the “F-Ade plasma levels in mice bearing tumors with different levels of E. coli PNP activity” value in data set [2] (20 mg/kg 3H-F-dAdo ip, 5, 15, 30, 60 min, D54 parental, D54/PNP MuLv, D54/lentiPNP tumors) is on record as “no difference”.

Regarding `Cc1ncnc2c1ncn2[C@@H]1O[C@H]([C@H](C)O)[C@@H](O)[C@H]1O` [5′-methyl(talo)MeP-R], the “human dosage determined by formula of Freireich” value in data set [3] (200 mg/kg times 3, from mouse data) worked out at 600 mg/m^2. The tolerability entry in data set [3] (mice, systemic, 200 mg per kg per day for 3 days (3 doses total)) was “well tolerated”.

With `O=NN(CCCl)C(=O)NCCCl` [BCNU], in data set [4] (at maximally tolerated doses), the “activity against D54 tumors” value is listed as “minimal activity”.

`Nc1nc(F)nc2c1ncn2[C@@H]1O[C@H](CO)[C@@H](O)[C@@H]1O` [F-araA, 9-(beta-D-arabinofuranosyl)-2-fluoroadenine]: in [5] (in vivo), the circulating half life is 50 min and the “peak levels compared with MeP-dR” value was “significantly higher”.

With `Nc1nc(F)nc2c1ncn2[C@@H]1O[C@H](COP(=O)(O)O)[C@@H](O)[C@@H]1O` [F-araAMP], in data set [6] (Ad-PNP 2x10^9 PFU, tumors appx. 250 mg, p<0.002 vs virus alone or no treatment), the “anti-tumor effect together with Ad-PNP” value is “slowing of tumor growth”. For the same molecule, the “toxicity in the study” value in data set [6] (Ad-PNP together with F-araAMP) is reported as “No limiting weight loss, animal deaths or other toxicities”. The maximally tolerated dose in data set [1] (given 5 times daily for 3 consecutive days, mice) was determined as 100 mg/kg. Further, the “MTD in mice bearing tumors that express E. coli PNP” value in [1] is given as “not reduced”. The duration of regressions in [7] (100% of cells expressed E. coli PNP (MuLv), tumors subsequently escape) is about 30 days. In [7] (F-araAMP following E. coli PNP transduction with MuLv), the “bystander killing in vivo” value is given as “little or no bystander killing”. In addition, the “effect on control D54 tumors” value in data set [4] (no PNP expression, GFP control transgene, standard 3 day schedule) is recorded as “no effect”. Also, in data set [2] (100 mg/kg F-araAMP, limit of detection approximately 1 micromolar), the “F-Ade in plasma of mice bearing tumors expressing E. coli PNP” value is given as “no F-Ade is detected”. The prodrug in plasma result in [5] (4 hours after injection of F-araAMP) is reported as “very little prodrug in plasma”. For the same molecule, the animal longevity result in [8] is “improved animal longevity”. Further, the “toxicity as judged by weight loss or lethality” value in data set [8] is reported as “have not indicated significant toxicity”. In addition, the “anti-tumor effect vs non-treatment groups” value in [9] (2.5%, 5%, 10% PNP transduced cells, 100 mg/kg q2h x5, q1d x3, p<0.001) is recorded as “significantly different from non-treatment groups”. In addition, the “anti-tumor effect vs non-treatment group” value in data set [9] (5% PNP expressing cells, 2 different schedules, p<0.001) was “significantly different from non-treatment group”; in [9] (10% PNP cells, 100, 50 or 25 mg/kg q2h x5, q1d x3 days, p<0.001, efficacy greater at 100 mg/kg), “significantly different from non-treatment group”. The “tolerability during tumor regressions” value in data set [9] (100% PNP tumors, F-araAMP MTD or half MTD) is given as “without excessive weight loss or other undesired sequelae”. For the same molecule, the “complete regression and cures of tumors” value in [9] (100% of cells express PNP, F-araAMP 3 day schedule, MTD (100 mg/kg) or half the MTD, six animals per group) was 12 of 12 and cured of their tumors. For the same molecule, the “anti-tumor effects at low proportion of PNP cells” value in data set [9] (as few as 2.5% of tumor cells express PNP) is reported as “Anti-tumor effects are observed”.

In the case of Ad-PNP, in data set [6] (two days after vector administration, 2x10^9 PFU), the “PNP activity in tumor extracts” value was “approximately 5000 PNP units”.

Take E. coli PNP (Escherichia coli K-12): the Michaelis-Menten constant (Km) – broadly, the concentration of substrate that gives half-maximal velocity – in data set [10] came out at 960 µM; in [11], 125 µM; in [12], 22 µM. For the same molecule, the Vmax (usually the rate approached at saturating substrate) came out at 0.0983 µmol/min/mg in data set [10], 24.3 µmol/min/mg in data set [11] and 7.08 µmol/min/mg in data set [12].

(Values after patent publication US20100151572A1, “ANTI-TUMORAL COMPOSITIONS METHODS” (priority 2005, published 2010).)
